How the values were obtained:
[1] = system: B. diazoefficiens WT; assay: MIC of polymyxin B by E-test; type: cell-based, Bradyrhizobium diazoefficiens; conditions: E-test strips 0.064-1024 μg/mL, 30° C., 7 days
Description: (§1) Disk diffusion assays were used to quantify growth under oxidative, acidic and detergent stresses. For this, 4 day-old cultures of B. diazoefficiens strains grown in yeast extract-mannitol (YM) medium were washed and adjusted to an OD600 of 1.2 ml bacterial suspensions were then mixed with 100 ml of 42° C. pre-warmed YM soft agar (0.8% agar) and 5 ml portions of this mixture were poured on solid YM. Filter disks were placed at the center of the plates, and 5 μl of 5.5 M H2O2, 2 M HCl or SDS (10% w/v), were deposited on the disks. The diameters of growth inhibition areas were measured after incubation at 30° C. for 5 days.
(§2) The MIC of polymyxin B was determined by the E-test method using disk diffusion assay as described above. Strips containing a gradient of polymyxin B ranging from 0.064-1024 μg/mL (Biomérieux, Marcy-l'étoile, France) were placed in the center of plates, which were incubated at 30° C. for 7 days before recording the results. The experiment was done in triplicates.

[2] = system: B. diazoefficiens ΔhpnH; assay: MIC of polymyxin B by E-test; type: cell-based, Bradyrhizobium diazoefficiens
Description: as §1, §2

polymyxin B
MIC for polymyxin B [1]: 512 µg/mL | MIC for polymyxin B ([2]; E-test strips 0.064-1024 μg/mL, 30° C., 7 days): 48 µg/mL | fold lower MIC for polymyxin B in ΔhpnH than WT ([2]; ΔhpnH versus WT): 10 fold
